Values after ≈ are worked out from the molar mass of the structure shown. Where two headings read alike, the source gives them in different places.
Tests used:
CHK-1 kinase = CHK-1 kinase (Homo sapiens (Human), UniProt O14757); test: CHK-1 % inhibition kinase assay (TR-FRET); type: biochemical; conditions: ATP 15 μM; for inhibition at 0.03 µM / inhibition at 0.3 µM: CHK1 enzyme; for inhibition at 0.03 µM: compound 30 nM; for inhibition at 0.3 µM: compound 300 nM; for IC50: TR-FRET, read-out: CHK1 IC50
Sequence of CHK-1 kinase (O14757 whole entry): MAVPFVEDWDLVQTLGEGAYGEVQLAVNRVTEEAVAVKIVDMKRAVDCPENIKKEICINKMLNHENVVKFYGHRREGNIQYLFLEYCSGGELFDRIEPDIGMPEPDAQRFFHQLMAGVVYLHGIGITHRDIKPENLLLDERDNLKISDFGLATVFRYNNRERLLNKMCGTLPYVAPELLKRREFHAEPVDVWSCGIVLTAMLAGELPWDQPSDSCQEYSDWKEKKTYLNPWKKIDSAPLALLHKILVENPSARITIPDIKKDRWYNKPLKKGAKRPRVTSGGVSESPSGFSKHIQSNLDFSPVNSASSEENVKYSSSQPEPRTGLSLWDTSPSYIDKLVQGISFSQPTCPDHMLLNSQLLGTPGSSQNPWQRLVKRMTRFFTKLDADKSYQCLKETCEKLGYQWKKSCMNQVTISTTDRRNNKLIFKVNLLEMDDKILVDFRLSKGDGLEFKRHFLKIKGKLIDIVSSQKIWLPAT
Method: Inhibition of CHK-1 kinase or percent inhibition at defined concentrations was determined by TR-FRET assay. Kinase reactions were performed in a 20 μL volume in low-volume 384-well plates (Cat #Corning 4511). The concentration of substrate Fluorescein-CREBtide was maintained at 0.2 μM in the assay, and the kinase reaction buffer consisted of 50 mM HEPES pH 7.5, 0.01% BRIJ-35, 10 mM MgCl2, 1 mM EGTA. Serially diluted compounds (3-fold) in DMSO (0.5% in final reaction) were incubated with cocktail of CHK-1 kinase (6 nM; Cat #PR3959B, ThermoFisher), Fluorescein-CREBtide (0.2 μM; Cat #PV3508, ThermoFisher), ATP (15 μM; Cat #A1852, Sigma), and kinase reaction buffer. After 1 hour kinase reactions at room temperature, 10 μL of Detection mix (8 nM LanthaScreen® Tb-CREB [pSer133] antibody, Cat #PV3542, ThermoFisher with 20 mM EDTA in TR-FRET Buffer, Cat #PV3574, ThermoFisher) was added, and the plate was read with a plate reader (Synergy™ NEO; Biotek) for TR-FRET.
The resulting TR-FRET emission ratio was used to calculate the percent inhibition by normalizing to the control using the following formula: […]

[1] = Microsomal stability assay, human liver microsome; type: in vitro ADME; conditions: liver microsomes, pH 7.4, 0.2 mg/mL, 1 μM compound, 37° C., read-out: Clint HLM
Method: (§1) Incubation mixture contained 0.2 mg/mL microsomes, 1 mmol NADPH, and test compound at 1 μM in 100 mmol potassium phosphate buffer at pH 7.4. The mixtures were incubated at 37° C. for 5, 15, and 30 minutes. Aliquots of the mixtures were taken at 0, 5, 15 and 30 minutes and quenched with chilled Acetonitrile:Methanol (50:50) containing internal standard. Following completion of incubation, samples were centrifuged at 4,000 rpm at 4° C. The supernatant was analyzed by LC-MS/MS and half-life, as well as intrinsic clearance (Clint), were calculated.

[2] = Microsomal stability assay, mouse liver microsome; type: in vitro ADME; conditions: liver microsomes, pH 7.4, 0.2 mg/mL, 1 μM compound, 37° C., read-out: Clint MLM
Method: as §1

[3] = Microsomal stability assay, rat liver microsome; type: in vitro ADME; conditions: liver microsomes, pH 7.4, 0.2 mg/mL, 1 μM compound, 37° C., read-out: Clint RLM
Method: as §1

[4] = Caco-2 cell permeability assay; type: in vitro ADME; conditions: human; for Papp A→B at 120 min: Caco-2, A to B; for Papp A→B at 120 min / Papp B→A at 120 min: pH 7.4; for Papp B→A at 120 min: Caco-2, B to A
Method: After thawed, Caco-2 cells were cultured in the medium containing 10% FBS, 1% Sodium pyruvate, 1% NEAA and 1% Glutamax MEM, then were placed in the incubator containing 5% CO2 at 37° C., and the culture medium then was replaced every 2-3 days. When the confluence reached 80%, the subculture was carried out. Add 5 mL of 1 M HEPES to 500 mL of HBSS for preparing transport buffer (pH 7.4), and the final concentration of HEPES was 10 mM. Before the transport study (day 21-28), take out the culture medium from the cell culture plate, wash it twice with preheated HBSS buffer (10 mM HEPES, pH 7.4), and add 100 μL HBSS buffer to each well. After incubation at 37° C. for 30 minutes, Teer value was measured by cell resistance meter (Millicell-ERS2) to confirm the integrity of monolayer cells. Discard the HBSS buffer, transfer the upper plate containing the cell monolayer membrane to the corresponding receiving plate, add the test compound solution or buffer to the top (side A) and the bottom (side B) respectively, put the cell plate into the corresponding 96 well receiving plate, and add the prepared positive control compound, test compound or HBSS buffer (with 0.5% BSA) on side A or side B of the filter membrane of Transwell cell plate according to the following groups, incubate cell plates at 37° C. When incubated for 5 minutes, 8 μL sample solutions were taken from the side A and the side B respectively and add 72 μL transport buffer (diluted 10 times) as TO of the initial solution. After 120 minutes of incubation, collect the samples at both ends of the filter membrane of Transwell cell plate; take 80 μL sample solution from the receiving side as the sample on the receiving side after transport, meanwhile take 8 μL sample solution from the administration side and then mix with 72 μL transport buffer, the well-mixed solution was used as the sample on the administration side after transport. After collecting bilateral samples, tap gently, discard the remaining solution in the cell plate, wash the cell plate with transport buffer; and to each well, add 100 μL acetonitrile solution containing internal standard working solution to lyse cells; After mixing well by blowing up and down, take 80 μL per well cell lysate as the sample after cell lysis. After collecting all samples in the transport system (TO sample from receiving side and administration side), 160 μL IS/ACN solution was added to each well, 80 μL IS/ACN solution was added to the collected lysate sample, and then seal it. Shake for 10 minutes and store the sample plate at −20° C. before LC-MS/MS analysis.
The following equation are used to calculate the apparent permeability coefficient (Papp, cm/s), the efflux ratio (ER), the solution recovery (% Recovery) and the total recovery (% Total Recovery).
Where, • Vreceiver is the volume of solution at the receiving end (0.25 mL for A to B and 0.1 mL for B to A); • Vdonor is the volume of the solution at the administration end (0.1 mL for A to B and 0.25 mL for B to A); • Vlysate is the volume of cell lysate (0.1 mL); • Area is the relative surface area of the cell monolayer (0.0804 cm^2); • Time is the incubation time (7200 s); • [drug]receiver is the drug concentration (nM) at the receiving end or the control compound; • [drug]donor is the concentration of drug or control compound at the administration end (nM); • [drug]lysate is the concentration of drug or control compound in cell lysate (nM); • [drug]initial is the initial concentration of the test or control compound (nM).

[5] = Kinetic solubility assay (nephelometry); conditions: PBS, 37 °C, pH 7.4, aqueous buffer, kinetic from dmso stock
Method: (§2) Test articles were serially diluted in DMSO from concentration range of 10 mM to 0.078 mM in 96 well v-bottom dilution plate (#3363, Corning). 1 μL of test article from each well was transferred to 96 well flat bottom clear plates (#655101, Greiner) containing 99 μL of PBS at pH-7.4, which makes the test drug final concentration range from 100 μM to 0.78 μM. Samples were incubated for 1 hour at 37° C. followed by measurement of light scattering at 625 nm with a laser based micro plate Nephelometer (Nephlostar Plus, BMG Labtech). Solubility concentration (μM) was then calculated by segmental regression with Neplometer as Readout.

physchem = conditions: 37 °C, pH 7.4, aqueous buffer, kinetic from dmso stock
Method: as §2

[6] = Caco-2, pH 7.4, Caco-2, solution recovery, A to B, read-out: Recovery % A to B
[7] = Caco-2, pH 7.4, Caco-2, solution recovery, B to A, read-out: Recovery % B to A
[8] = Caco-2, pH 7.4, Caco-2, total recovery with cell lysate, A to B, read-out: Recovery % with Cell Lysate A to B
[9] = Caco-2, pH 7.4, Caco-2, total recovery with cell lysate, B to A, read-out: Recovery % with Cell Lysate B to A

Row | SMILES | inhibition at 0.03 µM (CHK-1 kinase) [%] | inhibition at 0.3 µM (CHK-1 kinase) [%] | IC50 (CHK-1 kinase) [nM] | microsomal CLint at 1 μM [1] [µL/min/mg] | microsomal CLint at 1 μM [2] [µL/min/mg] | microsomal CLint at 1 μM [3] [µL/min/mg] | recovery at 120 min [4, 6] [%] | recovery at 120 min [4, 7] [%] | recovery at 120 min [4, 8] [%] | recovery at 120 min [4, 9] [%] | Papp A→B at 120 min [4] [×10⁻⁶ cm/s] | Papp B→A at 120 min [4] [×10⁻⁶ cm/s] | solubility kinetic at 1 h [5] [µM] | solubility kinetic at 1 h (physchem) [µM]
1 | N#Cc1cnc(Nc2cc(-c3ccccc3OCC3CNCCO3)on2)cn1 (stereo not drawn) [Compound 1.1, 5-(5-(2-(morpholin-2-ylmethoxy)phenyl)isoxazol-3-ylamino) pyrazine-2-carbonitrile] | 49 | 88 | 67.7 | 32 | 100 | 58 | 69 | 102 | 94.1 | 107 | 7 | 8.7 | 44 (≈ 16.6 µg/mL) | 
2 | N#Cc1cnc(Nc2cc(-c3ccccc3OCC3CCNCC3)on2)cn1 [Compound 1.2, 5-(5-(2-(piperidin-4-ylmethoxy)phenyl)isoxazol-3-ylamino) pyrazine-2-carbonitrile] | 36 | 85 | 13.3 | 45 | 39 | 27 | 67.7 | 103 | 93.9 | 108 | 5.35 | 9.75 | 45.6 (≈ 17.2 µg/mL) | 
3 | N#Cc1cnc(Nc2cc(-c3ccccc3OCC3CCCNC3)on2)cn1 (stereo not drawn) [Compound 1.3, 5-(5-(2-(piperidin-3-ylmethoxy)phenyl)isoxazol-3-ylamino) pyrazine-2-carbonitrile] | 50 | 97 | 7.77 | 47 | 68 | 61 | 54.7 | 103 | 89 | 107 | 3.4 | 11.2 | 100 (≈ 37.6 µg/mL) | 
4 | COc1cc(C2=CCNCC2)ccc1-c1cc(Nc2cnc(C#N)cn2)on1 [Compound 1.9, 5-(3-(2-methoxy-4-(1,2,3,6-tetrahydropyridin-4-yl)phenyl)isoxazol-5-ylamino) pyrazine-2-carbonitrile] | 33 | 31 | > 10000 | 159 | 83 | 85 |  |  |  |  |  |  |  | 100 (≈ 37.4 µg/mL)
5 | COc1cc(C2=CCNCC2)ccc1-c1cc(Nc2cnc(C#N)cn2)no1 [Compound 1.19, 5-(5-(2-methoxy-4-(1,2,3,6-tetrahydropyridin-4-yl)phenyl)isoxazol-3-ylamino) pyrazine-2-carbonitrile] | 15.1 | 50.5 |  | 183 | 239 | 88 |  |  |  |  |  |  |  | 27.6 (≈ 10.3 µg/mL)
6 | COc1cc(C2=CCN(C)CC2)ccc1-c1cc(Nc2cnc(C#N)cn2)on1 [Compound 1.22, 5-(3-(2-methoxy-4-(1-methyl-1,2,3,6-tetrahydropyridin-4-yl)phenyl)isoxazol-5-ylamino) pyrazine-2-carbonitrile] | 13.7 | 11 |  | 169 | 313 | 142 |  |  |  |  |  |  |  | 28.4 (≈ 11 µg/mL)
7 | N#Cc1cnc(Nc2cc(-c3cc4ccccc4cc3OCC3CNCCO3)[nH]n2)cn1 (stereo not drawn) [Compound 2.3, 5-(5-(3-(morpholin-2-ylmethoxy)naphthalen-2-yl)-1H-pyrazol-3-ylamino) pyrazine-2-carbonitrile] | 41 | 81 | 8.15 | 26 | 85 | 39 |  |  |  |  |  |  | 39.7 (≈ 17 µg/mL) | 
8 | N#Cc1cnc(Nc2cc(-c3cc4ccccc4cc3OCC3CCNC3)[nH]n2)cn1 (stereo not drawn) [Compound 2.4, 5-(5-(3-(pyrrolidin-3-ylmethoxy)naphthalen-2-yl)-1H-pyrazol-3-ylamino) pyrazine-2-carbonitrile] | 70 | 97 | 2.34 | 33 | 142 | 94 |  |  |  |  |  |  | 7.77 (≈ 3.2 µg/mL) | 
9 | N#Cc1cnc(Nc2cc(-c3cc4ccccc4cc3OCC3CCCNC3)[nH]n2)cn1 (stereo not drawn) [Compound 2.5, 5-(5-(3-(piperidin-3-ylmethoxy)naphthalen-2-yl)-1H-pyrazol-3-ylamino) pyrazine-2-carbonitrile] | 72 | 96 | 4.36 | 14 | 111 | 124 |  |  |  |  |  |  | 41.6 (≈ 17.7 µg/mL) | 
10 | N#Cc1cnc(Nc2cc(-c3cc4ccccc4cc3OCCN)[nH]n2)cn1 [Compound 2.6, 5-((5-(3-(2-aminoethoxy)naphthalen-2-yl)-1H-pyrazol-3-yl)amino) pyrazine-2-carbonitrile] | 61 | 90 | 15.7 | 3 | 153 | 58 |  |  |  |  |  |  | 18.8 (≈ 6.98 µg/mL) | 
11 | N#Cc1cnc(Nc2cc(-c3cc4ccccc4cc3OCCCN)[nH]n2)cn1 [Compound 2.7, 5-(5-(3-(3-aminopropoxy)naphthalen-2-yl)-1H-pyrazol-3-ylamino) pyrazine-2-carbonitrile] | 95 | 100 | 0.933 | 6 | 118 | 44 |  |  |  |  |  |  | 21.3 (≈ 8.21 µg/mL) | 
